In patent US20110136801A1, “Novel Compounds” (Dainippon Sumitomo Pharma Co. Ltd., priority 2009, published 2011):

Target: T1, human TLR7 (Homo sapiens, UniProt Q9NYK1)
T1 construct: expressed in transfected cells; host or cells: HEK293 cell line stably expressing the pNiFty2-SEAP reporter plasmid; TLR7 in pUNO vector, blasticidin selection
T1 sequence (Q9NYK1 27-1049): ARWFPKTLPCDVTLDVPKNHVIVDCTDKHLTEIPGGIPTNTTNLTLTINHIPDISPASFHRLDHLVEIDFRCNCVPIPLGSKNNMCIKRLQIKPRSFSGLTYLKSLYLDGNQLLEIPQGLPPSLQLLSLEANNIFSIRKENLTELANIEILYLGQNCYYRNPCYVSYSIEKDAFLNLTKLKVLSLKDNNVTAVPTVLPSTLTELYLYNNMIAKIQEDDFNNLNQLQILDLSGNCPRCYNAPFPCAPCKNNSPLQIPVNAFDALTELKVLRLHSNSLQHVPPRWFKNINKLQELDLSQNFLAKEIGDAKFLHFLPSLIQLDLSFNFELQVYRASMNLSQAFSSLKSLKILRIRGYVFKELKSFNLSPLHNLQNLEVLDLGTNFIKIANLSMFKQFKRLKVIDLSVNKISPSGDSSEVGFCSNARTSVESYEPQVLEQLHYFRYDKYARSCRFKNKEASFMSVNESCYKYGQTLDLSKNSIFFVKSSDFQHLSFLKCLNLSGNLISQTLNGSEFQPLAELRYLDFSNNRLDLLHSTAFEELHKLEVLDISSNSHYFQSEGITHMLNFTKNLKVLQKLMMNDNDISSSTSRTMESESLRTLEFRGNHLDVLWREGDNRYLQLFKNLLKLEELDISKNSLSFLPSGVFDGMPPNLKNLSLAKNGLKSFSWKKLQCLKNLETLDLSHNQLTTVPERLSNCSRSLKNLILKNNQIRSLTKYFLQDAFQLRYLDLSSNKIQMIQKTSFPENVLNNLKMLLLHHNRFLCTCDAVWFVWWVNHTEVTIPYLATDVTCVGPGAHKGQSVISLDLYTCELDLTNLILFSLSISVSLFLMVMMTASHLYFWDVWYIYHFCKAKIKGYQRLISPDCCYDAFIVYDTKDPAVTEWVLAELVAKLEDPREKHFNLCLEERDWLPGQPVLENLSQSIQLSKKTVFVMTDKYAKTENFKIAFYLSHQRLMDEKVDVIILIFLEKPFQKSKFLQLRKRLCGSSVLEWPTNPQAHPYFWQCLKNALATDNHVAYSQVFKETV
Assay: Human TLR7 Assay (SEAP reporter in HEK293 cells);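 further: Read-out is secreted alkaline phosphatase made under an NFkB/ELAM-1 composite promoter, reporting TLR7-triggered NFkB activation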
Type: cell-based
Details: HEK293 cell line expressing human TLR7 and pNiFty2-SEAP reporter, overnight incubation at 37° C., 0.1% DMSO; read-out: hTLR7 EC50
Excerpt: The most common variant sequence of human TLR7 (represented by the EMBL sequence AF240467) was cloned into the mammalian cell expression vector pUNO and transfected into a HEK293 cell line already stably expressing the pNiFty2-SEAP reporter plasmid; integration of the reporter gene was maintained by selection with the antibiotic zeocin. Transfectants with stable TLR7 expression were selected using the antibiotic blasticidin. In this reporter cell-line, expression of secreted alkaline phosphatase (SEAP) is controlled by an NFkB/ELAM-1 composite promoter comprising five NFkB sites combined with the proximal ELAM-1 promoter. TLR signaling leads to the translocation of NFkB and activation of the promoter results in expression of the SEAP gene. TLR7-specific activation was assessed by determining the level of SEAP produced following overnight incubation of the cells at 37° C. with the standard compound in the presence of 0.1% (v/v) dimethylsulfoxide (DMSO). Concentration dependent induction of SEAP production by compounds was expressed as the concentration of compound which produced half of the maximal level of SEAP induction for that compound (EC50).

SMILES | EC50
CCOC(=O)COc1ccc(CN(CCN2CCCCC2)C(=O)NCCCCn2c(CCOC)nc3c(N)nc4ccccc4c32)cc1 [Example 131, Ethyl 2-{4-[(3-{4-[4-amino-2-(2-methoxyethyl)-1H-imidazo[4,5-c]quinolin-1-yl]butyl}-1-{2-(piperidin-1-yl)ethyl}ureido)methyl]phenoxy}acetate] | 37.5 nM
CCCCc1nc2c(N)nc3ccccc3c2n1CCCN(CCCN1CCOCC1)Cc1cccc(OCC(=O)OC)c1 [Example 21, Methyl (3-{[[3-(4-amino-2-butyl-1H-imidazo[4,5-c]quinolin-1-yl)propyl](3-morpholinopropyl)amino]methyl}phenoxy)acetate] | 787 nM
CCOC(=O)COc1cc(CN(CCN2CCCCC2)C(=O)NCCCCn2c(CCOC)nc3c(N)nc4ccccc4c32)ccc1F [Example 143, Ethyl 2-{5-[(3-{4-[4-amino-2-(2-methoxyethyl)-1H-imidazo[4,5-c]quinolin-1-yl]butyl}-1-{2-(piperidin-1-yl)ethyl}ureido)methyl]-2-fluorophenoxy}acetate] | 49.4 nM
CCOC(=O)COc1cccc(CN(CCCCn2c(CCOC)nc3c(N)nc4ccccc4c32)C(=O)NCCN2CCCCC2)c1 [Example 126, Ethyl 2-{3-[(1-{4-[4-amino-2-(2-methoxyethyl)-1H-imidazo[4,5-c]quinolin-1-yl]butyl}-3-{2-(piperidin-1-yl)ethyl}ureido)methyl]phenoxy}acetate] | 47 nM
CCCCc1nc2c(N)nc3ccccc3c2n1CCCN(Cc1cccc(OC(C)(C)C(=O)OCC)c1)C(=O)CN(C)C [Example 155, Ethyl 2-[3-({N-[3-(4-amino-2-butyl-1H-imidazo[4,5-c]quinolin-1-yl)propyl]-2-(dimethylamino)acetamido}methyl)phenoxy]-2-methylpropanoate] | 235 nM
CCOC(=O)COc1cc(CN(CCCn2c(CCOC)nc3c(N)nc4ccccc4c32)C(=O)CN(CC)CC)ccc1F [Example 119, Ethyl 2-{5-[(N-{3-[4-amino-2-(2-methoxyethyl)-1H-imidazo[4,5-c]quinolin-1-yl]propyl}-2-{diethylamino}acetamido)methyl]-2-fluorophenoxy}acetate] | 93.2 nM
CCN(CC)CC(=O)N(CCCCn1c(CCOC)nc2c(N)nc3ccccc3c21)Cc1cccc(OCC(=O)OC(C)(C)C)c1 [Example 48, tert-Butyl 2-{3-[(N-{4-[4-amino-2-(2-methoxyethyl)-1H-imidazo[4,5-c]quinolin-1-yl]butyl}-2-{diethylamino}acetamido)methyl]phenoxy}acetate] | 24.7 nM
COCCc1nc2c(N)nc3ccccc3c2n1CCCN(Cc1cccc(OCC(=O)OC)c1)C(=O)CN1CCN(C)CC1 [Example 18, Methyl (3-{[[3-(4-amino-2-(2-methoxyethyl)-1H-imidazo[4,5-c]quinolin-1-yl)propyl][(4-methylpiperazin-1-yl)acetyl]amino]methyl}phenoxy)acetate] | 1270 nM
CCOC(=O)COc1cccc(CN(CCCn2c(CCOC)nc3c(N)nc4ccccc4c32)C(=O)CN(CC)CC)c1OC [Example 89, Ethyl 2-{3-[(N-{3-[4-amino-2-(2-methoxyethyl)-1H-imidazo[4,5-c]quinolin-1-yl]propyl}-2-{diethylamino}acetamido)methyl]-2-methoxyphenoxy}acetate] | 95.7 nM
CCN(C)CC(=O)N(CCCn1c(CCOC)nc2c(N)nc3ccccc3c21)Cc1cccc(OCC(=O)OC(C)C)c1F [Example 98, Isopropyl 2-{3-[(N-{3-[4-amino-2-(2-methoxyethyl)-1H-imidazo[4,5-c]quinolin-1-yl]propyl}-2-{ethyl(methyl)amino}acetamido)methyl]-2-fluorophenoxy}acetate] | 228 nM
CCN(CC)CC(=O)N(CCCn1c(CCOC)nc2c(N)nc3ccccc3c21)Cc1cccc(OC2(C(=O)OC)CC2)c1 [Example 79, Methyl 1-{3-[(N-{3-[4-amino-2-(2-methoxyethyl)-1H-imidazo[4,5-c]quinolin-1-yl]propyl}-2-{diethylamino}acetamido)methyl]phenoxy}cyclopropanecarboxylate] | 51.8 nM
CCOC(=O)COc1ccc(CN(CCCCn2c(CCOC)nc3c(N)nc4ccccc4c32)C(=O)NCCN2CCCCC2)cc1 [Example 125, Ethyl 2-{4-[(1-{4-[4-amino-2-(2-methoxyethyl)-1H-imidazo[4,5-c]quinolin-1-yl]butyl}-3-{2-(piperidin-1-yl)ethyl}ureido)methyl]phenoxy}acetate] | 11.2 nM
CCCCc1nc2c(N)nc3ccccc3c2n1CCCN(Cc1cccc(OC(C)(C)C(=O)OC)c1)C(=O)CN(C)C [Example 156, Methyl 2-[3-({N-[3-(4-amino-2-butyl-1H-imidazo[4,5-c]quinolin-1-yl)propyl]-2-(dimethylamino)acetamido}methyl)phenoxy]-2-methylpropanoate] | 168 nM
COCCc1nc2c(N)nc3ccccc3c2n1CCCCN(CCCN1CCOCC1)Cc1cccc(OCC(=O)OC(C)C)c1 [Example 133, Isopropyl 2-{3-[({4-[4-amino-2-(2-methoxyethyl)-1H-imidazo[4,5-c]quinolin-1-yl]butyl}{3-morpholinopropyl}amino)methyl]phenoxy}acetate] | 114 nM
CCOC(=O)C1(Oc2cccc(CN(CCCn3c(CCOC)nc4c(N)nc5ccccc5c43)C(=O)CN(CC)CC)c2)CCC1 [Example 59, Ethyl 1-{3-[(N-{3-[4-amino-2-(2-methoxyethyl)-1H-imidazo[4,5-c]quinolin-1-yl]propyl}-2-{diethylamino}acetamido)methyl]phenoxy}cyclobutanecarboxylate] | 69 nM
CCCCc1nc2c(N)nc3ccccc3c2n1CCCN(Cc1cccc(OCC(=O)OC(C)C)c1)C(=O)CN(CC)CC [Example 157, Isopropyl 2-[3-({N-[3-(4-amino-2-butyl-1H-imidazo[4,5-c]quinolin-1-yl)propyl]-2-(diethylamino)acetamido}methyl)phenoxy]acetate] | 100 nM
COCCc1nc2c(N)nc3ccccc3c2n1CCCN(Cc1cccc(OCC(=O)OC2CCCC2)c1)C(=O)CN(C)C [Example 110, Cyclopentyl 2-{3-[(N-{3-[4-amino-2-(2-methoxyethyl)-1H-imidazo[4,5-c]quinolin-1-yl]propyl}-2-{dimethylamino}acetamido)methyl]phenoxy}acetate] | 128 nM
CCN(C)CC(=O)N(CCCn1c(CCOC)nc2c(N)nc3ccccc3c21)Cc1ccc(OC)c(OCC(=O)OC(C)C)c1 [Example 76, Isopropyl 2-{5-[(N-{3-[4-amino-2-(2-methoxyethyl)-1H-imidazo[4,5-c]quinolin-1-yl]propyl}-2-{ethyl(methyl)amino}acetamido)methyl]-2-methoxyphenoxy}acetate] | 211 nM
CCOC(=O)COc1cccc(CN(CCCCn2c(CCOC)nc3c(N)nc4ccccc4c32)C(=O)NCCCN2CCCCC2)c1 [Example 128, Ethyl 2-{3-[(1-{4-[4-amino-2-(2-methoxyethyl)-1H-imidazo[4,5-c]quinolin-1-yl]butyl}-3-{3-(piperidin-1-yl)propyl}ureido)methyl]phenoxy}acetate] | 130 nM
CCN(CC)CC(=O)N(CCn1c(CCOC)nc2c(N)nc3ccccc3c21)Cc1cccc(OC(C)(C)C(=O)OC)c1 [Example 107, Methyl 2-{3-[(N-{2-[4-amino-2-(2-methoxyethyl)-1H-imidazo[4,5-c]quinolin-1-yl]ethyl}-2-{diethylamino}acetamido)methyl]phenoxy}-2-methylpropanoate] | > 10000 nM
CCOC(=O)C(C)(C)Oc1cccc(CN(CCCCn2c(CCOC)nc3c(N)nc4ccccc4c32)CCCN2CCOCC2)c1 [Example 136, Ethyl 2-{3-[({4-[4-amino-2-(2-methoxyethyl)-1H-imidazo[4,5-c]quinolin-1-yl]butyl}{3-morpholinopropyl}amino)methyl]phenoxy}-2-methylpropanoate] | 111 nM
CCOC(=O)C(C)(C)Oc1cccc(CN(CCn2c(CCOC)nc3c(N)nc4ccccc4c32)C(=O)CN(CC)CC)c1 [Example 106, Ethyl 2-{3-[(N-{2-[4-amino-2-(2-methoxyethyl)-1H-imidazo[4,5-c]quinolin-1-yl]ethyl}-2-{diethylamino}acetamido)methyl]phenoxy}-2-methylpropanoate] | > 10000 nM
CCOCc1nc2c(N)nc3ccccc3c2n1CCCN(Cc1cccc(OCC(=O)OC(C)C)c1F)C(=O)CN(C)C [Example 167, Isopropyl 2-{3-[(N-{3-[4-amino-2-(ethoxymethyl)-1H-imidazo[4,5-c]quinolin-1-yl]propyl}-2-{dimethylamino}acetamido)methyl]-2-fluorophenoxy}acetate] | 716 nM
